ChEMBL document CHEMBL3588769, “Synthesis and quantitative structure-activity relationships study for phenylpropenamide derivatives as inhibitors of hepatitis B virus replication” (Eur J Med Chem, 2015)

Key:
Hepatitis B virus = assay: Antiviral activity against HBV infected in human HepAD38 cells assessed as inhibition of viral DNA synthesis by dot blot hybridization method; type: functional, organism-based; parameters: -log(1/EC50): unit not given here; conditions: for EC50: Hepatitis B virus, HePAD38
[1] = Cytotoxicity against human HepAD38 cells assessed as reduction in cell viability; type: cell-based
HepG2 = assay: Cytotoxicity against human HepG2 cells assessed as reduction in cell viability; type: cell-based

Structure (SMILES)	-log(1/EC50) (Hepatitis B virus)	EC50 (Hepatitis B virus) [µM]	Activity [1]	Activity (HepG2)
Cc1ccc(/C(Cl)=C(/NC(=O)c2ccccc2)C(=O)N2CCCCC2)cc1	0.04139	1.1	Non-toxic	–
O=C(N/C(C(=O)N1CCCCC1)=C(\Cl)c1ccccc1Br)c1ccccc1	2	> 100	Non-toxic	–
N#Cc1ccccc1/C(Cl)=C(/NC(=O)c1ccccc1)C(=O)N1CCCCC1	0.2304	1.7	Non-toxic	–
O=C(N/C(C(=O)N1CCCCC1)=C(\Br)c1ccc(Br)cc1)c1ccccc1	1.813	65	Non-toxic	–
O=C(N/C(C(=O)N1CCCCC1)=C(\Cl)c1cncc2ccccc12)c1ccccc1	1.462	29	Non-toxic	–
O=C(N/C(C(=O)N1CCCCC1)=C(\Cl)c1cccc(Br)c1)c1ccccc1	2	> 100	Non-toxic	–
Cc1ccccc1/C(Cl)=C(/NC(=O)c1ccccc1)C(=O)N1CCCCC1	-0.004365	1	Non-toxic	–
O=C(N/C(C(=O)N1CCCCC1)=C(\Cl)c1cnc2ccccc2c1)c1ccccc1	1.477	30	Non-toxic	–
O=C(N/C(C(=O)N1CCCCC1)=C(\Cl)c1cccnc1)c1ccccc1	-0.02687	0.9	Non-toxic	–
O=C(N/C(C(=O)N1CCCCC1)=C(\Br)c1ccccc1)c1ccccc1	0.1139	1.3	Non-toxic	–
O=C(N/C(C(=O)N1CCCCC1)=C(\Cl)c1ccccc1F)c1ccccc1	0.2553	1.8	Non-toxic	–
O=C(N/C(C(=O)N1CCCCC1)=C(\Br)c1ccco1)c1ccccc1	-0.04576	0.9	Non-toxic	–
O=C(N/C(C(=O)N1CCCCC1)=C(\Cl)c1ccc(Br)cc1)c1ccccc1	2	> 100	Non-toxic	–
O=C(N/C(C(=O)N1CCCCC1)=C(\Br)c1cnc2ccccc2c1)c1ccccc1	0.8451	7	Non-toxic	–
O=C(N/C(C(=O)N1CCCCC1)=C(\Cl)c1ccc(F)cc1)c1ccccc1	0.3424	2.2	Non-toxic	–
O=C(N/C(C(=O)N1CCCCC1)=C(\Br)c1ccccc1Cl)c1ccccc1	0.9031	8	Non-toxic	–
O=C(N/C(C(=O)N1CCCCC1)=C(\Br)c1ccc(F)cc1)c1ccccc1	0.2553	1.8	Non-toxic	–

Now from value to compound, other results behind:

-log(1/EC50) (Hepatitis B virus)	EC50 (Hepatitis B virus) [µM]	Structure (SMILES)	Activity [1]	Activity (HepG2)
0.4472	2.8	Cc1ccc(/C(Br)=C(/NC(=O)c2ccccc2)C(=O)N2CCCCC2)cc1	Non-toxic	–
1.591	39	O=C(N/C(C(=O)N1CCCCC1)=C(\Cl)c1ccccc1Cl)c1ccccc1	Non-toxic	–
0.04139	1.1	N#Cc1ccccc1/C(Br)=C(/NC(=O)c1ccccc1)C(=O)N1CCCCC1	Non-toxic	–
0.7782	6	O=C(N/C(C(=O)N1CCCCC1)=C(\Br)c1ccccc1[N+](=O)[O-])c1ccccc1	Non-toxic	–
0.07918	1.2	O=C(N/C(C(=O)N1CCCCC1)=C(\Cl)c1ccccc1)c1ccccc1	Non-toxic	Non-toxic
1.708	51	O=C(N/C(C(=O)N1CCCCC1)=C(\Cl)c1ccc(Cl)cc1)c1ccccc1	Non-toxic	–
0.1761	1.5	O=C(N/C(C(=O)N1CCCCC1)=C(\Br)c1ccccc1F)c1ccccc1	Non-toxic	–
0.9031	8	COc1ccc(/C(Br)=C(/NC(=O)c2ccccc2)C(=O)N2CCCCC2)cc1	Non-toxic	–
1.322	21	COc1ccccc1/C(Cl)=C(/NC(=O)c1ccccc1)C(=O)N1CCCCC1	Non-toxic	–
0	1	O=C(N/C(C(=O)N1CCCCC1)=C(\Br)c1cccnc1)c1ccccc1	Non-toxic	–
0.699	5	O=C(N/C(C(=O)N1CCCCC1)=C(\Br)c1cncc2ccccc12)c1ccccc1	Non-toxic	–
1.531	34	O=C(N/C(C(=O)N1CCCCC1)=C(\Cl)c1ccccc1[N+](=O)[O-])c1ccccc1	Non-toxic	–
-0.09691	0.8	O=C(N/C(C(=O)N1CCCCC1)=C(\Cl)c1ccco1)c1ccccc1	Non-toxic	–
-0.05061	0.9	Cc1ccccc1/C(Br)=C(/NC(=O)c1ccccc1)C(=O)N1CCCCC1	Non-toxic	–
1	10	O=C(N/C(C(=O)N1CCCCC1)=C(\Br)c1ccc(Cl)cc1)c1ccccc1	Non-toxic	–
1.398	25	O=C(N/C(C(=O)N1CCCCC1)=C(\Br)c1ccccc1Br)c1ccccc1	Non-toxic	–
0.3222	2.1	COc1ccccc1/C(Br)=C(/NC(=O)c1ccccc1)C(=O)N1CCCCC1	Non-toxic	–
1.398	25	COc1ccc(/C(Cl)=C(/NC(=O)c2ccccc2)C(=O)N2CCCCC2)cc1	Non-toxic	–
1.544	35	O=C(N/C(C(=O)N1CCCCC1)=C(\Br)c1cccc(Br)c1)c1ccccc1	Non-toxic	–
